Data: ChEMBL document CHEMBL1153468, “Discovery of a novel protein kinase B inhibitor by structure-based virtual screening” (Bioorg Med Chem Lett, 2009)
Activity calls are given as the source filed them. No cut-off for these calls is given here.

Legend:
[1] = target: T1, RAC-beta serine/threonine-protein kinase (Homo sapiens, UniProt P31751); experiment: Inhibition of AKT2 at 50 uM by FRET based assay
[2] = target: T1, RAC-beta serine/threonine-protein kinase; experiment: Inhibition of AKT2 at 25 uM by FRET based assay
[3] = target: RAC-alpha serine/threonine-protein kinase (Homo sapiens, UniProt P31749); experiment: Inhibition of AKT1 by FRET based assay
[4] = target: T1, RAC-beta serine/threonine-protein kinase; experiment: Inhibition of AKT2 by FRET based assay
[5] = target: RAC-gamma serine/threonine-protein kinase (Homo sapiens, UniProt Q9Y243); experiment: Inhibition of AKT3 by FRET based assay
[6] = tested on: MDA-MB-468; experiment: Cytotoxicity against human MDA-MB-468 cells with PTEN mutation and EGFR amplification after 12 hrs by MTT assay; type: functional, cell-based; settings: MDA-MB-468, 12 h
[7] = tested on: MDA-MB-453; experiment: Cytotoxicity against human MDA-MB-453 cells with PIK3CA mutation and HER2 amplification after 12 hrs by MTT assay; type: functional, cell-based; settings: MDA-MB-453, 12 h

T1 sequence (P31751 whole entry): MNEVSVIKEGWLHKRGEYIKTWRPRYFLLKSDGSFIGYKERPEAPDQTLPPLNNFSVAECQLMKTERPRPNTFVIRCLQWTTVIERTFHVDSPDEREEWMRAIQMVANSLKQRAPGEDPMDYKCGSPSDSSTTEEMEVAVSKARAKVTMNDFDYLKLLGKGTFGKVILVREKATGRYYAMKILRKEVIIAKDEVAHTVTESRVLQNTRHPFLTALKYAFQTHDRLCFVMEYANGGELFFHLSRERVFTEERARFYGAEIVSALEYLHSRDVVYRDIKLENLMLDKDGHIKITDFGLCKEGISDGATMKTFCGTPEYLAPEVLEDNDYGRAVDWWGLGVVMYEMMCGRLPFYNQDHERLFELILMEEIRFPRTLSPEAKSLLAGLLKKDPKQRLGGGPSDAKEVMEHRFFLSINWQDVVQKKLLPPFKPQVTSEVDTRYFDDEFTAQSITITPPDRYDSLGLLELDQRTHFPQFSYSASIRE
Chain of RAC-alpha serine/threonine-protein kinase (P31749 whole entry): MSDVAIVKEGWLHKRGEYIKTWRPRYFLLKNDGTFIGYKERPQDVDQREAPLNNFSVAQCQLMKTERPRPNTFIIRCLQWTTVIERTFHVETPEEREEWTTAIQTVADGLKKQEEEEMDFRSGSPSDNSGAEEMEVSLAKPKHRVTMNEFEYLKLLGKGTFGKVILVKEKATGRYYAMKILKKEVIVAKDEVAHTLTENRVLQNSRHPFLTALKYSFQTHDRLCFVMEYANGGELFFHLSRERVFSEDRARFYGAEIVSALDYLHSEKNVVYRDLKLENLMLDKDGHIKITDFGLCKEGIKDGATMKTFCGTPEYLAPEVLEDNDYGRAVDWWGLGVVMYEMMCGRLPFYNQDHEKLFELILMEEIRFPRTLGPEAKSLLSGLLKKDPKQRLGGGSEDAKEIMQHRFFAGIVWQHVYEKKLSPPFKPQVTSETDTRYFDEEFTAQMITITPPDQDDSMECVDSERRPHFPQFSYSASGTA
Chain of RAC-gamma serine/threonine-protein kinase (Q9Y243 whole entry): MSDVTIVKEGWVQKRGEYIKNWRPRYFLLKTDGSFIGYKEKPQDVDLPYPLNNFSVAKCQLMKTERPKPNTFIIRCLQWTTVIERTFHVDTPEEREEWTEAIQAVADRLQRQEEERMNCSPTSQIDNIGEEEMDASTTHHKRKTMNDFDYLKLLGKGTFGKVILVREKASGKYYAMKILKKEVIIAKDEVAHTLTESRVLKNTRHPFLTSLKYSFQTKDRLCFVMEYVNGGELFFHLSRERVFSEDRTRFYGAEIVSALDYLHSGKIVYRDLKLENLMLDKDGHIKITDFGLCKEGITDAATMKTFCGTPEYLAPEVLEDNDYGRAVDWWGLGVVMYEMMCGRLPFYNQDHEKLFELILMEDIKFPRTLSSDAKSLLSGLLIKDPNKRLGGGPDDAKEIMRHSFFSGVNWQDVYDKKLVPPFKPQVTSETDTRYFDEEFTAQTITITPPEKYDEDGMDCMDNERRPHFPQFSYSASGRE

| Activity [1] | Activity [2] | IC50 [3] [µM] | IC50 [4] [µM] | IC50 [5] [µM] | SMILES | EC50 [6] [µM] | EC50 [7] [µM] |
| --- | --- | --- | --- | --- | --- | --- | --- |
| inactive | inactive | – | – | – | O=S(=O)(NCCNC/C=C/c1ccc(Br)cc1)c1cccc2cnccc12 | – | – |
| – | – | 2.6 | 1.5 | 4 | O=C1COc2ccc(-c3cc(-c4ccccc4)cc(-c4ccc5oc(=O)[nH]c5c4)n3)cc2N1 | 3.8 | 10 |
| inactive | inactive | – | – | – | Clc1ccc(C2(c3ccc(-c4cn[nH]c4)cc3)CCNCC2)cc1 | – | – |
